According to US10709707B2, “Methods of treating ocular conditions” (Oyster Point Pharma, Inc., priority 2016, dated 2020):
Where “and” joins values, the source holds several entries; their conditions need not be identical. Equal values may be shown once. Entries after “also recorded” stand apart in the source; their conditions may differ. Read-outs that look alike come from different tables or passages of the source.

Columns and labels:
human α3β2 = target: T1, human α3β2 (Homo sapiens, UniProt P17787+P32297); assay: Receptor binding α3β2, recombinant human receptors in HEK cells; conditions: [3H]-S-nicotine, human α3β2 expressed in HEK cells
T1 construct: expressed in transfected cells

[1] = target: T2, α7 nicotinic acetylcholine receptor (Rattus norvegicus, UniProt Q05941); assay: Receptor binding α7, inhibition of [3H]-MLA binding, rat brain membranes
T2 construct: from tissue; host or cells: rat brain membranes (per the earlier reading)

[2] = target: T3, α4β2 nicotinic acetylcholine receptor (Rattus norvegicus, UniProt P09483+P12390); assay: Receptor binding α4β2, inhibition of [3H]-(S)-nicotine binding, rat brain membranes
T3 construct: from tissue; host or cells: rat brain cortical membranes

rat bone marrow = assay: in vivo rat bone marrow micronucleus test
Text: (§1) Compound 1 was negative for mutagenicity in both in vitro bioassays—including an Ames test, a micronucleus test in mouse lymphoma cells, and a chromosome aberration assay using cultured human peripheral blood lymphocytes—and an in vivo rat bone marrow micronucleus test.

Rabbit Purkinje fibers = assay: Cardiovascular safety, rabbit Purkinje fibers in vitro
a4b4 = a4b4 (Homo sapiens, UniProt P30926+P43681); assay: Receptor function a4b4, Ca++ flux; assay type: cell-based
behavioral sensitization = assay: CNS safety pharmacology, behavioral sensitization by motor activity; assay type: in vivo, Rat: Sprague-Dawley
respiratory parameters = assay: Respiratory safety pharmacology; assay type: in vivo, Rat: Sprague-Dawley
[3] = Single dose pharmacokinetics studies; assay type: in vivo; conditions: Swiss (mouse), Sprague-Dawley (rat), cynomolgus (monkey), plasma, oral, rat and monkey, read-out: time to reach maximum concentration (Tmax)
Experimental: In a monkey study, [^14C]-Compound 1 was given at 10 mg/kg orally or 5 mg/kg by iv infusion. Oral bioavailability in this study was about 30%.

[4] = CNS safety pharmacology, body temperature; assay type: in vivo, Rat: Sprague-Dawley; conditions: po, doses up to and including 100 mg/kg
human α4β2 = human α4β2 (Homo sapiens, UniProt P17787+P43681); assay: Receptor function α4β2, Ca++ flux; assay type: cell-based
Experimental: There are two types of α4β2-containing nAChR, depending on which subunit occupies the fifth subunit of the pentaineric complex. There is a high sensitivity subtype, (α4β2)2β2, and a low sensitivity subtype, (α4β2)2α4. Targacept used a rudimentary assay to encourage the expression of one subtype over the other based on incubation temperature.

[5] = Clinical studies with oral formulation; assay type: in vivo
Text: The drug substance for Compound 1 nasal spray was previously used in clinical trials as an oral formulation. […] Compound 1 is re-formulated as a nasal spray.

mouse lymphoma cells = assay: micronucleus test in mouse lymphoma cells; assay type: cell-based; conditions: in vitro
Text: as §1

[6] = system: pentylenetetrazole convulsions; assay: CNS safety pharmacology, convulsant properties with subconvulsant pentylenetetrazole; assay type: in vivo, Rat: Sprague-Dawley
[7] = target: high and low sensitivity alpha4beta2-containing NNR subtypes (Homo sapiens, UniProt P17787+P43681); assay: Electrophysiology studies; assay type: cell-based
Text: It is readily absorbed following oral administration and has favorable pharmacokinetics.

[8] = target: T4, ganglionic receptor (α3β4) (Homo sapiens, UniProt P30926+P32297); assay: Receptor function ganglionic receptors (human), SH-SY5Y and IMR-32 cells; assay type: cell-based
T4 construct: endogenous in cells

[9] = 13-week repeat-dose oral toxicity in rats; assay type: in vivo, rat
Experimental: Compound 1 was given to rats once daily for at least 13 weeks via oral gavage at doses of 30, 100, or 300 mg/kg/day. Two of 15 females receiving 300 mg/kg/day died. Clinical signs in males and females in this high-dose group included; reduced food consumption, anogenital staining, lacrimation, chromodacryorrhea, and tremors. Laboratory results included marginally lower RBC mass that correlated with elevated reticulocyte counts with recovery; elevated liver enzymes and bilirubin throughout the dosing period, with evidence of resolution during recovery urinary changes, including increased urine volume, elevated urinary protein, and higher bilirubin and urobilinogen, with resolution during recovery. Rats receiving doses of 100 mg/kg/day and higher had clinical signs that included excessive salivation, tan brown muzzle, closed or partially closed eyelids, and reduced body weight. Laboratory results included elevated WBC (lymphocytes and neutrophils), with recovery; elevated bilirubin; and a slight decrease in total serum protein (globulins and albumin). […] At doses ≥100 mg/kg/day, microscopic findings of centrilobular hepatocellular hypertrophy, medullary adrenal gland cell hypertrophy, mucosal epithelial cell hyperplasia of the small intestine, and increased extramedullary hematopoiesis and hemosiderin deposits in the red pulp of the spleen were observed. […] Accordingly, the NOAEL was considered to be 30 mg/kg/day. […] AUC and Cmax increased between Day 1 and Day 29.

human α7 = target: T5, human α7 (Homo sapiens, UniProt P36544); assay: Receptor binding α7, recombinant human receptors in HEK cells; conditions: human α7 expressed in HEK cells
T5 construct: expressed in transfected cells; host or cells: HEK cells (per the earlier reading)

[10] = a4b2 HS (high sensitivity), 29° C., Ca++ Flux
[11] = Human ganglion-type (a3b4*), Ca++ Flux
[12] = female, rat, in vivo, po, 30 mg/kg/day
[13] = male, rat, in vivo, po, 30 mg/kg/day

T2 sequence (Q05941 23-502): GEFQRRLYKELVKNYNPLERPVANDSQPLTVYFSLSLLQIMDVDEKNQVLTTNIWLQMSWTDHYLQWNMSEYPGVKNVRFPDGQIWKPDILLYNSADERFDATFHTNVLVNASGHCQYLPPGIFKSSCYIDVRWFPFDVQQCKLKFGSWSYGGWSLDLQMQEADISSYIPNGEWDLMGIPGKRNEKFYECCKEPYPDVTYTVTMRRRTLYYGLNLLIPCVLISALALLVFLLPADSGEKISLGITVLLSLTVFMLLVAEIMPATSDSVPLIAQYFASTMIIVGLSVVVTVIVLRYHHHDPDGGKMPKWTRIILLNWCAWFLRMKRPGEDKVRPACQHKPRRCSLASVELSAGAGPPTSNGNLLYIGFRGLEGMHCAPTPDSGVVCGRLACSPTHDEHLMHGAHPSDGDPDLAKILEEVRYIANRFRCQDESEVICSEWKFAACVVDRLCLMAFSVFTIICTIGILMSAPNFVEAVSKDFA
human α4β2, sequence (P43681 29-627 limits assumed): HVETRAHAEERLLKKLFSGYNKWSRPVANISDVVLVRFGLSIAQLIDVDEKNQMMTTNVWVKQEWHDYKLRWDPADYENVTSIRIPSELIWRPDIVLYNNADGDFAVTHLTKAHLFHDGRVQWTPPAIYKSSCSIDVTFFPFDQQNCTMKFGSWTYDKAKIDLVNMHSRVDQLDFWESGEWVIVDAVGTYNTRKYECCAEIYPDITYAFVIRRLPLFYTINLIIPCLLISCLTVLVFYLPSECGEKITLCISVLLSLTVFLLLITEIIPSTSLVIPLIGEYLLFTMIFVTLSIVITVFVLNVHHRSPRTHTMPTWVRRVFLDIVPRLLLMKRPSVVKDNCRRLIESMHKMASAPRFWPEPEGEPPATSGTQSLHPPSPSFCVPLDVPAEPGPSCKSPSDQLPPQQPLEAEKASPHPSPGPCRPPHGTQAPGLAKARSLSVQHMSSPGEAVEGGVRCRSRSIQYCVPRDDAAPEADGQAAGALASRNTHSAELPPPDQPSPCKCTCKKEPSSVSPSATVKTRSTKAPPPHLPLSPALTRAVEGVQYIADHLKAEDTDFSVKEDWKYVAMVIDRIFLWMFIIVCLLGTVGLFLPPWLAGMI
human α4β2, sequence (P17787 26-502): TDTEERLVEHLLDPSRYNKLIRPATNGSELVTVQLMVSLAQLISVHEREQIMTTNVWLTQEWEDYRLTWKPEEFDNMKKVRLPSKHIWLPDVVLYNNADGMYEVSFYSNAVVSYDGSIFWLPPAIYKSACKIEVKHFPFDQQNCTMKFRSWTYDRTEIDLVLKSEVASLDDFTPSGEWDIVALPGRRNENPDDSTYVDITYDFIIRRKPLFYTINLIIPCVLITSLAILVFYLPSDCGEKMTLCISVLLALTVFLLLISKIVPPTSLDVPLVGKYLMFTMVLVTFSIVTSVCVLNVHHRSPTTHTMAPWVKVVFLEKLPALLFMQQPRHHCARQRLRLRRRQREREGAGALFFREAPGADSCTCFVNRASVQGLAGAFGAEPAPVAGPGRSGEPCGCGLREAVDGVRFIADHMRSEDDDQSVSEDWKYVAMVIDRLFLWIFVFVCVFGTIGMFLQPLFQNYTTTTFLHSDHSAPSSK
T4 sequence (P32297 32-505): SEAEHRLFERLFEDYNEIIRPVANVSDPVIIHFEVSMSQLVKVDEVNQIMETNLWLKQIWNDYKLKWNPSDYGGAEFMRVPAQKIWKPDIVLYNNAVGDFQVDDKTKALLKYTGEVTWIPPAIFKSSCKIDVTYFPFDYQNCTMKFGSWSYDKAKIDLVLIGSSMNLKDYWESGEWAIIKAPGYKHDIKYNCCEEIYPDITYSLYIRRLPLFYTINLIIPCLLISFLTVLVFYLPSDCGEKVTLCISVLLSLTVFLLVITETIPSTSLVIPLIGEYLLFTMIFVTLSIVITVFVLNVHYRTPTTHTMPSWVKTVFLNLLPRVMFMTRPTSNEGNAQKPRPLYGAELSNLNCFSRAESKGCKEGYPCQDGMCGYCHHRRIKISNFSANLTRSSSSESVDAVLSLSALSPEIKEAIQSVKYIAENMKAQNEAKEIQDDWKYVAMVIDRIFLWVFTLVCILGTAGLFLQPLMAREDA
T4 sequence (P30926 22-498): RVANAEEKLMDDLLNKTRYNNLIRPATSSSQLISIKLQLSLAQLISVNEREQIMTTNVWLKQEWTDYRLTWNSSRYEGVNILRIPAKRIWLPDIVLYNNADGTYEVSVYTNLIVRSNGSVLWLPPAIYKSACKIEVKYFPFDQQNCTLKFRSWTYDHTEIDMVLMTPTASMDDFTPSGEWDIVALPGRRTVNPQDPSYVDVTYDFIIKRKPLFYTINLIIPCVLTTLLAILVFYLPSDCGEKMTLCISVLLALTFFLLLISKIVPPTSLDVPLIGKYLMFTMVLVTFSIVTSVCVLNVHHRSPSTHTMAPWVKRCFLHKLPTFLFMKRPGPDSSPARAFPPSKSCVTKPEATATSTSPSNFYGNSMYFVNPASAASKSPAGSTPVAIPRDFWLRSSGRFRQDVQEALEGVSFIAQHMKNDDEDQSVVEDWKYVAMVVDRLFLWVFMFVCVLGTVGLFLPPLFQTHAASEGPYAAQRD
a4b4, sequence (P43681 29-627 limits assumed): as the sequence (P43681 29-627 limits assumed) above
a4b4, sequence (P30926 22-498): as the sequence (P30926 22-498) above
T3 sequence (P09483 31-630): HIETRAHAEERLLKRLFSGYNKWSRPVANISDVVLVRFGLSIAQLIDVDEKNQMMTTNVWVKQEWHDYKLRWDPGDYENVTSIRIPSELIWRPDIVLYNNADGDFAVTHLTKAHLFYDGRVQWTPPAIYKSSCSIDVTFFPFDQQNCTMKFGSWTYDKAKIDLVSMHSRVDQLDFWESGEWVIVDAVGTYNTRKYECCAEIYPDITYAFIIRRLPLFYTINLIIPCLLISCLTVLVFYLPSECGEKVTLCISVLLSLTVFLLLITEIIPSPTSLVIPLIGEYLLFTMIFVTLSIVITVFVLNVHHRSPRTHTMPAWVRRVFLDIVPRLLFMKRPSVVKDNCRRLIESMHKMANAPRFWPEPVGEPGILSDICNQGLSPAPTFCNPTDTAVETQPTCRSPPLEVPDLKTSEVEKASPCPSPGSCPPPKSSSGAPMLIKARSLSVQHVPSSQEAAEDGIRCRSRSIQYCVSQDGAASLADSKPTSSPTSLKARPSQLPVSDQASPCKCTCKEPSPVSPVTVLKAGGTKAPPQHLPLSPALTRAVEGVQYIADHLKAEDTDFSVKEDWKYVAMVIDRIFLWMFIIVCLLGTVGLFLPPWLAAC
T3 sequence (P12390 25-500): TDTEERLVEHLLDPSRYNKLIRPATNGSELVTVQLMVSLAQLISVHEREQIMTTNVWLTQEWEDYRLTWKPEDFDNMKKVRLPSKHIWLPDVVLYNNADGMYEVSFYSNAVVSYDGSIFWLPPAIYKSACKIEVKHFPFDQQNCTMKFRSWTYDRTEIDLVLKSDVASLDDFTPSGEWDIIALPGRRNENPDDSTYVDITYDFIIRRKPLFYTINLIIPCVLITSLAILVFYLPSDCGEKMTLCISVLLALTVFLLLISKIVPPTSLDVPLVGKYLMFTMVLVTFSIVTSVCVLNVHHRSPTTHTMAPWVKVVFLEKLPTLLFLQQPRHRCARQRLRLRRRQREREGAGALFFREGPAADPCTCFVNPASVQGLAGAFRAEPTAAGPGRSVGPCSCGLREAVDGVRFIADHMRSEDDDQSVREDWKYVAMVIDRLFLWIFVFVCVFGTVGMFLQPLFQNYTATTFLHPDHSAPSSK
high and low sensitivity alpha4beta2-containing NNR subtypes, sequence (P43681 29-627 limits assumed): as the sequence (P43681 29-627 limits assumed) above
high and low sensitivity alpha4beta2-containing NNR subtypes, sequence (P17787 26-502): as the sequence (P17787 26-502) above
T1 sequence (P32297 32-505): as the sequence (P32297 32-505) above
T1 sequence (P17787 26-502): as the sequence (P17787 26-502) above
T5 sequence (P36544 23-502): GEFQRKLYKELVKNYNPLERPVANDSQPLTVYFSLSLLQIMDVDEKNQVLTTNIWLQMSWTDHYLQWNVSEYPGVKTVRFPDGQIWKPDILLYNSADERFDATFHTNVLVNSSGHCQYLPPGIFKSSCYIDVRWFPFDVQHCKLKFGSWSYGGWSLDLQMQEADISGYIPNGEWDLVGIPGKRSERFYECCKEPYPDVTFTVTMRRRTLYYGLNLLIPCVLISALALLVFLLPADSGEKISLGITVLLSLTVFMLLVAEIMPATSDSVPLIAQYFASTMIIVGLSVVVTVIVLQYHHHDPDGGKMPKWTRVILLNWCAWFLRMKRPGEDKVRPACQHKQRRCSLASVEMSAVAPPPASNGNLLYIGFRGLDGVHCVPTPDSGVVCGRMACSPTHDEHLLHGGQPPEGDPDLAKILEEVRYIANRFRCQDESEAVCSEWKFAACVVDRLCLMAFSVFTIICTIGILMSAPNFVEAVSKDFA

## C(=C\[C@H]1CCNC1)/c1cncnc1 [Compound 1, (R)-5-((E)-2-pyrrolidin-3-ylvinyl)pyrimidine]
Human α3β2
  Ki: 0.027 µM
[1]; Rat a7, assay and tissue type not given
  Ki: 3.5 µM
[1]; [3H]-MLA, rat brain hippocampal membranes
  Ki: 5.5 µM and 5.53 µM
[2]; Rat a4b2, assay and tissue type not given
  Ki: 0.034 µM
[2]; [3H]-S-nicotine, rat brain cortical membranes
  Ki: 0.027 µM
Rat bone marrow
  mutagenicity, bone marrow micronucleus test: negative
Rabbit Purkinje fibers; 30 μM
  lengthening of action potential duration: 7%
Rabbit Purkinje fibers; 100 μM
  lengthening of action potential duration: 20%
Rabbit Purkinje fibers; any concentration (3-100 μM)
  resting membrane potential, action potential amplitude, Vmax: no effect on resting membrane potential,
Rabbit Purkinje fibers; at 3 and 10 μM
  action potential duration: no effect
Rabbit Purkinje fibers; at 30 and 100 μM, concentration dependent
  action potential duration: dependent lengthening of the action
a4b4
  EC50: 4.3 µM
  Emax: 98%
Behavioral sensitization; 30 mg/kg, 15 days cross-challenge
  interaction between Compound 1 and nicotine in behavioral sensitization: daily for 15 days indicated no interaction
Behavioral sensitization; Compound 1 3, 10, 30 mg/kg po
  behavioral sensitization (motor activity): no noteworthy changes; also recorded: not associated with behavioral
Respiratory parameters; 100 mg/kg po
  respiratory rate, minute volume, peak inspiratory flow: Transient adverse effects; also recorded: shortlasting increase in respiratory rate,
Respiratory parameters; 10 and 30 mg/kg po
  respiratory parameters: 10 and 30 mg/kg did not cause changes
Respiratory parameters; 5 hour observation period
  tidal volume and index of airway resistance: There were no changes in tidal volume and
Respiratory parameters; po
  NOEL, respiratory: The NOEL was 30 mg/kg.
[3]
  Tmax: 0.167 to 2.25 h
[4]
  effect on body temperature: no noteworthy changes; also recorded: Compound 1 had no effect on body
Human α4β2; Ca++ flux, SH-EP1 cells expressing human α4β2
  EC50: 5.3 µM
Human α4β2; Ca++ flux, SH-EP1 cells expressing human α4β2, read-out: Emax
  Emax: 120%
Human α4β2; Human a4b2, Ca++ Flux
  EC50: 5.3 µM
Human α4β2; a4b2 HS 29° C., Ca++ Flux
  (Imax): 98
Human α4β2; [10]
  EC50: 3.3 µM
  IC50: 0.43 µM
Human α4β2; a4b2 LS 37° C., Ca++ Flux
  DC50: 0.45 µM
  Dmax: 98%
Human α4β2; a4b2 LS (low sensitivity), 37° C., Ca++ Flux
  EC50: 5.3 µM
Human α4β2; high sensitivity subtype (α4β2)2β2, read-out: Emax
  Emax: 120%
Human α4β2; human α4β2-containing nAChR
  EC50: 0.6 µM
Human α4β2; low sensitivity subtype (LS)
  IC50: 0.45 µM
Human α4β2; read-out: Emax compared to nicotine, human α4β2-containing nAChR
  Emax: 120%
Human α4β2; α4β2 nicotine receptor subtype
  agonist type: full agonist
[5]
  efficacy in clinical studies: failed to reach efficacy endpoints
  safety in clinical studies: considered safe
Mouse lymphoma cells
  mutagenicity, micronucleus test: negative
[6]; 10, 30, 100 mg/kg po
  convulsions in combination with subconvulsant pentylenetetrazole: no noteworthy changes; also recorded: not did not induce convulsions. D-
[6]; po with pentylenetetrazole
  NOEL, convulsant properties: The NOEL was 100 mg/kg.
[7]
  activity at high and low sensitivity alpha4beta2-containing NNR subtypes: agonist activity
[8]; [11]
  EC50: 13 µM
  Emax: 150%
[8]; IMR-32 cells
  EC50: 22 µM
[8]; Rb+ Flux, IMR cells
  EC50: 22 µM
  Emax: 79%
[8]; Rb+ Flux, SHSY5Y cells
  EC50: 18 µM
[8]; SH-SY5Y cells
  EC50: 18 µM
  Emax vs. nicotine: 60%
[8]; SH-SY5Y, Rb+ Flux, SHSY5Y cells
  Emax: 60%
[8]; α3β4 nicotine receptor subtype
  agonist type: full agonist
[9]; both sexes, in vivo, 13-week rat study, oral, as summarised
  NOAEL at 13 weeks: 30 mg/kg
[9]; both sexes, rat, in vivo, po
  Tmax: 0.5 to 2 h
[9]; both sexes, rat, in vivo, rats, oral gavage once daily, 13 weeks
  NOAEL at 13 weeks: 30 mg/kg/day
[9]; [12]
  AUC: 10200 ng·h/mL
  Cmax: 3150 ng/mL
[9]; females, 300 mg/kg/day
  deaths: Two of 15
[9]; male, rat, in vivo, 30 mg/kg/day, 13 weeks
  incidence of minimal hepatocellular hypertrophy: 7 of 10
[9]; [13]
  AUC: 12100 ng·h/mL
  Cmax: 2570 ng/mL
Human α7
  Ki: 15 µM
